Measurements published in patent US12338484B2, “FRET biosensor for detecting and reporting NAD+/NADH ratio changes” (Sartorius BioAnalytical Instruments, Inc., priority 2022, dated 2025).

Assay: Performance of initial constructs under dual-excitation FRET signal collection mode
Type: biochemical
From the text: Constructs #10 and #14 in Table 3 were used to generate protein libraries. […] This is evidenced by the fact that all clones chosen from the libraries to proceed with have in vitro a substantial increase in signal window, compared to the original template protein (constructs #10 or #14). These increases are also roughly similar fold-wise between the numbers obtained in bacterial lysate screening and in the process of in vitro characterization.

For “Rex(A)-cpmEGFP(173/174)-Rex(B)-mKOk [Construct #12]”, the “Performance under dual-excitation FRET signal collection mode” value was “poor performance”.
